Assay results: patent publication US20090018215A1, “Fumigant for wood parasitic nematodes and wood fumigation method” (priority 2004, published 2009)
Like-named read-outs stand apart in the source and are kept apart here.

System: Bursaphelenchus xylophilus
Format: in vivo
Settings: 24 hours

Row | Structure (SMILES) | effect of killing nematodes (control area: sulfuryl fluoride alone, 50 g/m^3, 15° C.) [%] | effect of killing nematodes (control area: methyl iodide as is, injected through injection syringe, 96 g/m^3, 10° C.) [%]
1 | O=S(=O)(F)F [sulfuryl fluoride] | 89 | 
2 | CI [methyl iodide] |  | 98
